From paper PMC5706100 (Theranostics, 2017)
Positions of bridges follow the written chain, without caps; N, C: chain ends. No end group written: not given here.

Experiments:
[1] = tested on: CD31-positive plaque neovascularization; assay: Immunofluorescence of FITC-GEBP11 and CD31 in plaque tissue sections; parameters: species or system rabbit
EAhy926 cells = assay: Immunofluorescence staining of FITC-GEBP11 in hypoxia-treated cells; type: cell-based; settings: FITC-labelled peptide, after hypoxia treatment

In the case of “CTKNSYLMC (disulfide 1-9 (inferred)) [GEBP11 peptide]”, the “cell selectivity by immunofluorescence staining” value ([1]; endothelial cells versus macrophages) is reported as “selectively target endothelial cells rather than macrophages”, the “co-localization with CD31 in plaque section” value ([1]; rabbit plaque tissue sections, confocal microscopy) is reported as “well co-localized with CD31-positive plaque neovascularization and vasa vasorum” and the “binding affinity to EAhy926 cells” value (EAhy926 cells) is reported as “high binding affinity”.
